This passage reports Ki results from US20040156869A1, “2-substituted quinazolin-4-ylamine analogues” (Neurogen Corporation, priority 2002, published 2004).

The structures appear in SMILES notation.

Chain of human capsaicin receptor (VR1) (Q8NER1 whole entry): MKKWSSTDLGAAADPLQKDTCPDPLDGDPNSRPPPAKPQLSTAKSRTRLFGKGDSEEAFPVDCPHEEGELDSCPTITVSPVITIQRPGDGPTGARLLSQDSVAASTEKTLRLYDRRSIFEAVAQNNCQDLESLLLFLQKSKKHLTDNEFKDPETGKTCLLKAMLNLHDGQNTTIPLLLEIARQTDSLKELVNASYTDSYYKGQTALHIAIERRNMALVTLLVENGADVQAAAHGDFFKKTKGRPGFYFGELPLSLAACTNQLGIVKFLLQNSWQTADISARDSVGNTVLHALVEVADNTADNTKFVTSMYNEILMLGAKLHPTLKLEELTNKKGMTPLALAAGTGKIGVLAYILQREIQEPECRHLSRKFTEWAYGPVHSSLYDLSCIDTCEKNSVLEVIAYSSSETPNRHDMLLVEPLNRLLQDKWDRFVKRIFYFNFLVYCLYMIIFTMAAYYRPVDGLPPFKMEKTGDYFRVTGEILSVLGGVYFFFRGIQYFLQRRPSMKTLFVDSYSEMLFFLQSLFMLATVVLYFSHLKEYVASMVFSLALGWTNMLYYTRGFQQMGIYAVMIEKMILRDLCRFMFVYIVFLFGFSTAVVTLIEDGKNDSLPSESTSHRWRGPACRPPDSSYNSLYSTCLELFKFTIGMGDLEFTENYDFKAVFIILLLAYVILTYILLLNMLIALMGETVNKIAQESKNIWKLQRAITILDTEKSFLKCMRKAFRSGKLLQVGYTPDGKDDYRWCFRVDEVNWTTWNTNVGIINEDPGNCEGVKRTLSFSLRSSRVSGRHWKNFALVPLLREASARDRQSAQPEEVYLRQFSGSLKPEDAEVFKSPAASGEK

One assay addresses human capsaicin receptor (VR1) (Homo sapiens, UniProt Q8NER1). Briefly: Capsaicin receptor binding assay ([3H]RTX competition, VR1-transfected HEK293 membranes).
Details: not given
On to `CCCOCc1cc(Nc2ccc(C(F)(F)F)cc2)c2ccc(-c3ncccc3C(F)(F)F)nc2n1` [Compound 313, [2-Propoxymethyl-7-(3-trifluoromethyl-pyridin-2-yl)-[1,8]naphthyridin-4-yl]-(4-trifluoromethyl-phenyl)-amine], for which the Ki (usually the dissociation constant of the complex between target and ligand, obtained from inhibition or displacement) was less than 1 µM.

The molecule `CC(C)COCc1cc(Nc2ccc(C(F)(F)F)cn2)c2ccc(-c3ncccc3C(F)(F)F)nc2n1` [Compound 314, [2-Isobutoxymethyl-7-(3-trifluoromethyl-pyridin-2-yl)-[1,8]naphthyridin-4-yl]-(5-trifluoromethyl-pyridin-2-yl)-amine] yielded a Ki of less than 1 µM.

`CC(c1ccccc1)N(C)Cc1nc(Nc2ccc(C(F)(F)F)cc2)c2ccc(-c3ncccc3C(F)(F)F)cc2n1` (stereo not drawn) [Compound 323, [2-{[Methyl-(1-phenyl-ethyl)-amino]-methyl}-7-(3-trifluoromethyl-pyridin-2-yl)-quinazolin-4-yl]-(4-trifluoromethyl-phenyl)-amine]: the Ki was less than 1 µM.

`CN(Cc1nc(Nc2ccc(C(F)(F)F)cc2)c2ccc(-c3ncccc3C(F)(F)F)cc2n1)C1CCc2ccccc21` (stereo not drawn) [Compound 324, [2-[(Indan-1-yl-methyl-amino)-methyl]-7-(3-trifluoromethyl-pyridin-2-yl)-quinazolin-4-yl]-(4-trifluoromethyl-phenyl)-amine] gave a Ki of less than 1 µM.

In turn, `CCCN(C)Cc1nc(Nc2ccc(C(F)(F)F)cc2)c2ccc(-c3ncccc3C(F)(F)F)cc2n1` [Compound 330] came in with a Ki of less than 1 µM.

On to `CCCCN(C)Cc1nc(Nc2ccc(C(F)(F)F)cc2)c2ccc(-c3ncccc3C(F)(F)F)cc2n1` [Compound 331], for which the Ki is less than 1 µM.

Turning to `CCN(Cc1nc(Nc2ccc(C(F)(F)F)cc2)c2ccc(-c3ncccc3C(F)(F)F)cc2n1)C(C)C` [Compound 332], the Ki was less than 1 µM.

Molecule `C=CCN(CC=C)Cc1nc(Nc2ccc(C(F)(F)F)cc2)c2ccc(-c3ncccc3C(F)(F)F)cc2n1` [Compound 333] had a Ki of less than 1 µM.

The molecule `CCCCN(CC)Cc1nc(Nc2ccc(C(F)(F)F)cc2)c2ccc(-c3ncccc3C(F)(F)F)cc2n1` [Compound 334] yielded a Ki of less than 1 µM.

In the case of `CCCCCCN(C)Cc1nc(Nc2ccc(C(F)(F)F)cc2)c2ccc(-c3ncccc3C(F)(F)F)cc2n1` [Compound 336], the Ki was less than 1 µM.

Molecule `CC(C)N(C)Cc1nc(Nc2ccc(C(F)(F)F)cc2)c2ccc(-c3ncccc3C(F)(F)F)cc2n1` [Compound 338] showed a Ki of less than 1 µM.

Regarding `COCCN(CCOC)Cc1nc(Nc2ccc(C(F)(F)F)cc2)c2ccc(-c3ncccc3C(F)(F)F)cc2n1` [Compound 344, [2-{[Bis-(2-methoxy-ethyl)-amino]-methyl}-7-(3-trifluoromethyl-pyridin-2-yl)-quinazolin-4-yl]-(4-trifluoromethyl-phenyl)-amine], the Ki was less than 1 µM.

`CCCCCN(CCCCC)Cc1nc(Nc2ccc(C(F)(F)F)cc2)c2ccc(-c3ncccc3C(F)(F)F)cc2n1` [Compound 345, [2-Dipentylaminomethyl-7-(3-trifluoromethyl-pyridin-2-yl)-quinazolin-4-yl]-(4-trifluoromethyl-phenyl)-amine] registered a Ki of less than 1 µM.

`CCCCCCN(CCCCCC)Cc1nc(Nc2ccc(C(F)(F)F)cc2)c2ccc(-c3ncccc3C(F)(F)F)cc2n1` [Compound 346, [2-Dihexylaminomethyl-7-(3-trifluoromethyl-pyridin-2-yl)-quinazolin-4-yl]-(4-trifluoromethyl-phenyl)-amine] showed an inhibition constant Ki of less than 1 µM.

Regarding `CC(c1ccccc1)N(C)Cc1nc(Nc2ccc(C(F)(F)F)nc2)c2ccc(-c3ncccc3C(F)(F)F)cc2n1` (stereo not drawn) [Compound 348, [2-{[Methyl-(1-phenyl-ethyl)-amino]-methyl}-7-(3-trifluoromethyl-pyridin-2-yl)-quinazolin-4-yl]-(6-trifluoromethyl-pyridin-3-yl)-amine], the Ki is less than 1 µM.

`CN(Cc1nc(Nc2ccc(C(F)(F)F)nc2)c2ccc(-c3ncccc3C(F)(F)F)cc2n1)C1CCc2ccccc21` (stereo not drawn) [Compound 349, [2-[(Indan-1-yl-methyl-amino)-methyl]-7-(3-trifluoromethyl-pyridin-2-yl)-quinazolin-4-yl]-(6-trifluoromethyl-pyridin-3-yl)-amine] gave a Ki of less than 1 µM.

In turn, `CCC(c1ccccc1)N(C)Cc1nc(Nc2ccc(C(F)(F)F)nc2)c2ccc(-c3ncccc3C(F)(F)F)cc2n1` (stereo not drawn) [Compound 350, [2-{[Methyl-1-(1-phenyl-propyl)-amino]-methyl}-7-(3-trifluoromethyl-pyridin-2-yl)-quinazolin-4-yl]-(6-trifluoromethyl-pyridin-3-yl)-amine] came in with a Ki of less than 1 µM.

`CC1c2ccccc2CCN1Cc1nc(Nc2ccc(C(F)(F)F)nc2)c2ccc(-c3ncccc3C(F)(F)F)cc2n1` (stereo not drawn) [Compound 351, [2-(1-Methyl-3,4-dihydro-1H-isoquinolin-2-ylmethyl)-7-(3-trifluoromethyl-pyridin-2-yl)-quinazolin-4-yl]-(6-trifluoromethyl-pyridin-3-yl)-amine] came in with a Ki of less than 1 µM.

Take `FC(F)(F)c1ccc(Nc2nc(CN3CCc4ccccc4C3)nc3cc(-c4ncccc4C(F)(F)F)ccc23)cn1` [Compound 352, [2-(3,4-Dihydro-1H-isoquinolin-2-ylmethyl)-7-(3-trifluoromethyl-pyridin-2-yl)-quinazolin-4-yl]-(6-trifluoromethyl-pyridin-3-yl)-amine]: the Ki is less than 1 µM.

Consider `CN(Cc1cccc(F)c1)Cc1nc(Nc2ccc(C(F)(F)F)nc2)c2ccc(-c3ncccc3C(F)(F)F)cc2n1` [Compound 353], for which the Ki was less than 1 µM.

Turning to `Cc1ccccc1CN(C)Cc1nc(Nc2ccc(C(F)(F)F)nc2)c2ccc(-c3ncccc3C(F)(F)F)cc2n1` [Compound 354, [2-{[Methyl-(2-methyl-benzyl)-amino]-methyl}-7-(3-trifluoromethyl-pyridin-2-yl)-quinazolin-4-yl]-(6-trifluoromethyl-pyridin-3-yl)-amine], the Ki is less than 1 µM.

The molecule `CN(Cc1nc(Nc2ccc(C(F)(F)F)nc2)c2ccc(-c3ncccc3C(F)(F)F)cc2n1)Cc1ccccc1F` [Compound 355, [2-{[(2-Fluoro-benzyl)-methyl-amino]-methyl}-7-(3-trifluoromethyl-pyridin-2-yl)-quinazolin-4-yl]-(6-trifluoromethyl-pyridin-3-yl)-amine] registered a Ki of less than 1 µM.

In turn, `CN(CCc1ccccc1)Cc1nc(Nc2ccc(C(F)(F)F)nc2)c2ccc(-c3ncccc3C(F)(F)F)cc2n1` [Compound 357, [2-[(Methyl-phenethyl-amino)-methyl]-7-(3-trifluoromethyl-pyridin-2-yl)-quinazolin-4-yl]-(6-trifluoromethyl-pyridin-3-yl)-amine] gave a Ki of less than 1 µM.

Regarding `FC(F)(F)c1ccc(Nc2nc(CN3CCCC3)nc3cc(-c4ncccc4C(F)(F)F)ccc23)cn1` [Compound 358, [2-Pyrrolidin-1-ylmethyl-7-(3-trifluoromethyl-pyridin-2-yl)-quinazolin-4-yl]-(6-trifluoromethyl-pyridin-3-yl)-amine], the Ki is less than 1 µM.

In turn, `FC(F)(F)c1ccc(Nc2nc(CN3CCCCC3)nc3cc(-c4ncccc4C(F)(F)F)ccc23)cn1` [Compound 359, [2-Piperidin-1-ylmethyl-7-(3-trifluoromethyl-pyridin-2-yl)-quinazolin-4-yl]-(6-trifluoromethyl-pyridin-3-yl)-amine] showed a Ki of less than 1 µM.

In the case of `CC1CCN(Cc2nc(Nc3ccc(C(F)(F)F)nc3)c3ccc(-c4ncccc4C(F)(F)F)cc3n2)CC1` [Compound 360, [2-(4-Methyl-piperidin-1-ylmethyl)-7-(3-trifluoromethyl-pyridin-2-yl)-quinazolin-4-yl]-(6-trifluoromethyl-pyridin-3-yl)-amine], the Ki is less than 1 µM.

In the case of `FC(F)(F)c1ccc(Nc2nc(CN3CCCCCC3)nc3cc(-c4ncccc4C(F)(F)F)ccc23)cn1` [Compound 361, [2-Azepan-1-ylmethyl-7-(3-trifluoromethyl-pyridin-2-yl)-quinazolin-4-yl]-(6-trifluoromethyl-pyridin-3-yl)-amine], the Ki is less than 1 µM.

Take `FC(F)(F)c1ccc(Nc2nc(CN3CCCCCCC3)nc3cc(-c4ncccc4C(F)(F)F)ccc23)cn1` [Compound 362, [2-Azocan-1-ylmethyl-7-(3-trifluoromethyl-pyridin-2-yl)-quinazolin-4-yl]-(6-trifluoromethyl-pyridin-3-yl)-amine]: the Ki was less than 1 µM.

Turning to `CC1CCN(Cc2nc(Nc3ccc(C(F)(F)F)nc3)c3ccc(-c4ncccc4C(F)(F)F)cc3n2)CC(C)(C)C1` (stereo not drawn) [Compound 363, (6-Trifluoromethyl-pyridin-3-yl)-[7-(3-trifluoromethyl-pyridin-2-yl)-2-(3,3,5-trimethyl-azepan-1-ylmethyl)-quinazolin-4-yl]-amine], the Ki is less than 1 µM.

In turn, `FC(F)(F)c1ccc(Nc2nc(CN3CCC4(CC3)OCCO4)nc3cc(-c4ncccc4C(F)(F)F)ccc23)cn1` [Compound 364, [2-(1,4-Dioxa-8-aza-spiro[4.5]dec-8-ylmethyl)-7-(3-trifluoromethyl-pyridin-2-yl)-quinazolin-4-yl]-(6-trifluoromethyl-pyridin-3-yl)-amine] showed a Ki of less than 1 µM.

Molecule `FC(F)(F)c1ccc(Nc2nc(CN3CCCC4CCCCC43)nc3cc(-c4ncccc4C(F)(F)F)ccc23)cn1` (stereo not drawn) [Compound 365, [2-(Octahydro-quinolin-1-ylmethyl)-7-(3-trifluoromethyl-pyridin-2-yl)-quinazolin-4-yl]-(6-trifluoromethyl-pyridin-3-yl)-amine] showed a Ki of less than 1 µM.

For `CN(C)Cc1nc(Nc2ccc(C(F)(F)F)nc2)c2ccc(-c3ncccc3C(F)(F)F)cc2n1` [Compound 366, [2-Dimethylaminomethyl-7-(3-trifluoromethyl-pyridin-2-yl)-quinazolin-4-yl]-(6-trifluoromethyl-pyridin-3-yl)-amine], the Ki was less than 1 µM.

The assay is the same for the next values; noted with them: Table III; [3H]RTX competition binding, capsaicin receptor.
Consider `CC1CC(C)CN(Cc2nc(Nc3ccc(C(F)(F)F)cc3)c3ccc(-c4ncccc4C(F)(F)F)cc3n2)C1` (stereo not drawn) [Compound 347, [2-(3,5-Dimethyl-piperidin-1-ylmethyl)-7-(3-trifluoromethyl-pyridin-2-yl)-quinazolin-4-yl]-(4-trifluoromethyl-phenyl)-amine], for which the Ki was less than 1 µM.
